From US20180125842A1, “Ergoloid for Cancer” (priority 2016, published 2018)

System: splenic lymphoma
Experiment: Clinical use in splenic lymphoma
Format: in vivo, human
Settings: before addition of Ergoloid

Rituxan: an immunotherapy
disease course on Rituxan alone: gradually allowing progression
